What all share (format): cell-based
In assay [1] the test system is VCaP cells. Kind of assay: cell proliferation assay. The procedure:
(§1) After 7 days, cell viability was measured using a CellTiter 96® AQueous One Solution Cell Proliferation Assay kit (Promega).

Assay [2] relates to LNCaP cells. Kind of assay: cell proliferation assay. Conditions: Homo sapiens, 72 h, read-out: IC50 values proliferation LNCaP. The procedure:
as §1

In assay [3] the target is T1, HDAC6 (Homo sapiens, UniProt Q9UBN7).
T1 sequence (Q9UBN7 1-1215): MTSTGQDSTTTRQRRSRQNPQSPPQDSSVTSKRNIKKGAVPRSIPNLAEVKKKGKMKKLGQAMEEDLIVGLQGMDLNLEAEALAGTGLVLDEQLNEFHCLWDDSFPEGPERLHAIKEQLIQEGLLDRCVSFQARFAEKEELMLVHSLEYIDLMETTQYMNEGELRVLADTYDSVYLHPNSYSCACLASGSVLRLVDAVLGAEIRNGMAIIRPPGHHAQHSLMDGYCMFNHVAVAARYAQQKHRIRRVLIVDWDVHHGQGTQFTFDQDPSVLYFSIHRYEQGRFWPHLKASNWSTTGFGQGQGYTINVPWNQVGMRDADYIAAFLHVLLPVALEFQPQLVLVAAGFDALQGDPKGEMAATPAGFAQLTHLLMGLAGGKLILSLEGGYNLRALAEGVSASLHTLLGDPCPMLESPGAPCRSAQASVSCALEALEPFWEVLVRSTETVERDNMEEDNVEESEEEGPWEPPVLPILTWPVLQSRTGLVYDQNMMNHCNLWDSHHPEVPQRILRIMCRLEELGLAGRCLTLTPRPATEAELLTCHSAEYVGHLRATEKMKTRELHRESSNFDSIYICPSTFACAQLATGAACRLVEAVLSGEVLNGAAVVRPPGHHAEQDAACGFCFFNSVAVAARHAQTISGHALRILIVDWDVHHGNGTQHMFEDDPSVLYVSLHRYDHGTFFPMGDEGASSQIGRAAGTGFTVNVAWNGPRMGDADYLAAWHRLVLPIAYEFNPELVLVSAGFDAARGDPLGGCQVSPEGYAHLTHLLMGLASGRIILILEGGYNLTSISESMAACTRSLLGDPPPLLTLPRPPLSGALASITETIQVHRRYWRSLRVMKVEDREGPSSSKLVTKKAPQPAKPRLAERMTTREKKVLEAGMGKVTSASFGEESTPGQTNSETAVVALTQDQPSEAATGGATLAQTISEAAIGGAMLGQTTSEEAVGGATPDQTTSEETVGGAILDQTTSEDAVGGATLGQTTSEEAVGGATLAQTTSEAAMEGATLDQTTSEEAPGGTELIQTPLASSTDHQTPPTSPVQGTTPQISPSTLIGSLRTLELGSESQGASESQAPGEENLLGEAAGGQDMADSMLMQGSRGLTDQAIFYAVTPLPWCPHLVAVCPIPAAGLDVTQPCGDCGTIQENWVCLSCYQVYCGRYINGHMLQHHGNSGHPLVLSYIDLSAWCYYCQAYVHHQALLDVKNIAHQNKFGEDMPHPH
Kind of assay: acetylation of α-tubulin (HDAC6 substrate) in VCaP cells, Western blot. The note with it: 24 hours. The procedure:
RNA expression level was analyzed by qRT-PCR and protein expression level was analyzed by Western blot. […] (I) Representative immunofluorescence microscopic images of VCaP cells for checking the subcellular localization of AR.
To evaluate the HDAC6 inhibition ability of Zeta55 in VCaP cells, the acetylation status of α-tubulin protein (a HDAC6 substrate) was assessed using western blot. […] We assessed the protein level of AR in VCaP cells.
The whole-cell extracts were prepared in lysis buffer with a protease inhibitor cocktail (Bimake), while the xenograft tissue extracts were prepared in 0.5% Nonidet P 40 Substitute solution (Biosharp) with cocktail protease inhibitor (Bimake). Each sample containing 30 μg of total protein was loaded onto 10% SDS-PAGE and electrotransferred onto polyvinylidene fluoride membranes. The membranes were blocked with 5% skimmed milk in PBST at room temperature for 2 hours and incubated with primary antibodies at 4° C overnight. After the membranes were washed with PBST three times, they were incubated with horseradish peroxidase-conjugated anti-rabbit or anti-mouse secondary antibody at room temperature for 1 hour. Chemiluminescent detection was performed with WesternBright ECL (Advansta). The immunoblots were visualized using the FluorChem FC3 system (ProteinSimple).
A general note: In western blotting, separated proteins are transferred to a membrane and probed.

Assay [4] addresses T2, AR (Homo sapiens, UniProt P10275).
T2 construct: The VCaP cells were transfected with MMTV-LUC for 24 hours; endogenous in cells; host or cells: VCaP
T2 sequence (P10275 1-920): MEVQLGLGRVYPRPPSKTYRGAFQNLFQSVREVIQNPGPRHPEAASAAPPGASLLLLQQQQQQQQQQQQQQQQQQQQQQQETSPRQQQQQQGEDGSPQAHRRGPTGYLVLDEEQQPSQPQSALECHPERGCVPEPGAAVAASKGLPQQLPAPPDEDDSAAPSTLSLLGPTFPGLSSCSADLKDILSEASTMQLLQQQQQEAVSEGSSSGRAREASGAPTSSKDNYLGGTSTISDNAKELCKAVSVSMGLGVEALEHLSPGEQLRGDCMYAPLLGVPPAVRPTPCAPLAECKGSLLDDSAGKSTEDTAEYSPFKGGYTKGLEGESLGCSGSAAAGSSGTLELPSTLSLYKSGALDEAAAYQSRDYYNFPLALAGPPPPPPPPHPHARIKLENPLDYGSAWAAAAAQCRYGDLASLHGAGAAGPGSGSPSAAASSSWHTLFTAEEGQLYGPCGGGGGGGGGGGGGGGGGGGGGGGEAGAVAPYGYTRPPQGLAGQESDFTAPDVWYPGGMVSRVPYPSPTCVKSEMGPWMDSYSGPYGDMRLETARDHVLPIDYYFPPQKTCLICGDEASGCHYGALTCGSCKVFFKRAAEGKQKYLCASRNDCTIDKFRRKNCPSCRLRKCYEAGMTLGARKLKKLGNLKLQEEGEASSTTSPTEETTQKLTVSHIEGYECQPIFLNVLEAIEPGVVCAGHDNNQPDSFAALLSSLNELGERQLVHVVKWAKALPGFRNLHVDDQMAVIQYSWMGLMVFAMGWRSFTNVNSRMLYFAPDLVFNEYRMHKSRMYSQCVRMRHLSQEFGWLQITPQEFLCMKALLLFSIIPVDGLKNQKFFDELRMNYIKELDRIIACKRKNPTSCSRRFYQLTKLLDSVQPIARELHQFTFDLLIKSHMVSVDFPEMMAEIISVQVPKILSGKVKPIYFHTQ
Kind of assay: cell-based. The note with it: VCaP cells. How it is done:
To evaluate the AR inhibition activities of Zeta55, an AR luciferase activity assay was performed (Table 1 and Supplementary Figure 1). […] To evaluate the HDAC inhibition activities of Zeta55, fluorescent-based HDAC assays were performed (Table 1 and Supplementary Figure 3).

Each structure is given as a SMILES string. pIC50: −log10 of the molar value.

Consider `N#Cc1ccc(N2C(=O)C3(CCC3)N(c3ccc(C(=O)NO)c(F)c3)C2=S)cc1C(F)(F)F` [Zeta55], for which the pIC50 in assay [1] (Homo sapiens, VCaP, 168 h, read-out: IC50 values proliferation VCaP) is 5.61; in assay [2] it was 5.08; in assay [4] (AR luciferase activity assay, MMTV-LUC, with 10 nM DHT) it was 6.20. The “anti-proliferation activity relative to MDV3100” value in assay [1] (VCaP cells) is 4.5 fold. The α-tubulin acetylation entry in assay [3] is “enhanced α-tubulin acetylation in a dose-dependent manner”. In addition, in assay [4] (in the presence of DHT), the “AR antagonist activity, AR-mediated expression of reporter gene” value was “potently inhibited”. Moreover, in assay [4] (without DHT, 10 μM), the “AR agonist activity, expression of reporter gene” value is “did not induce the expression of reporter gene”.
